Read-outs that look alike come from different tables or passages of the source.
Test system: Chikungunya virus
Conditions: 200 ppm formaldehyde, 22° C.

## C=O [formaldehyde]
After ~9 h
  reduction of virus titer (TCID50): 99%
After ~15 h
  reduction of virus titer (TCID50): 99.9%
